Results reported in patent US20250092383A1, “COMPOUNDS AND METHODS FOR FBXO22-MEDIATED PROTEIN DEGRADATION” (Northwestern University, priority 2023, published 2025).

Key:
Format in all cases: cell-based
FKBP12-EGFP = biological target: T1, FKBP12-EGFP (Homo sapiens, UniProt P62942); experiment: E3 ligase focused CRISPR-Cas9 transcriptional activation screen for FKBP12-EGFP degradation; conditions: 2 μM 22-SLF, 24 hours, HEK293T CRISPR-Cas9 transcriptional activation cells
T1 construct: expressed in transfected cells
Protocol: FIGS. 1A-1E show an E3 ligase focused CRISPR-Cas9 transcriptional activation screen identifies FBXO22 that supports 22-SLF-induced reduction in FKBP12-EGFP expression levels. FIG. 1A is a schematic representation of the steps in the CRISPR-Cas9 transcriptional activation screen. […] FIG. 1C is a volcano plot showing the E3 ligase focused CRISPR-Cas9 transcriptional activation screen for FKBP12-EGFP degradation after treatment of 2 μM 22-SLF in HEK293T CRISPR-Cas9 transcriptional activation cells for 24 hours. […] The statistical significance was evaluated through unpaired two-tailed Student's t-tests, comparing cells transduced with FBXO22 sgRNA to control sgRNA. Statistical significance denoted ****P<0.0001. […] The statistical significance was evaluated through unpaired two-tailed Student's t-tests, comparing cells treated with 22-SLF to DMSO. Statistical significance denoted as ***P<0.001 and ns: not significant.
With the CRISPR-Cas9 transcriptional activation cells, a CRISPR-Cas9 transcriptional activation pool screen was developed to identify E3 ligases that support FKBP12 degradation by FKBP12-directed heterobifunctional compounds. […] Subsequently, cells from the bottom 15% of the GFP population were isolated using fluorescence-activated cell sorting (FIG. 1a and FIG. 7). […]

CUTA = biological target: T2, CUTA (Homo sapiens, UniProt O60888); experiment: MS-based global proteomic analysis in A549 parental and FBXO22 knockout cells (CUTA); conditions: 2 μM, 24 hours
T2 construct: endogenous in cells; host or cells: A549 parental and FBXO22 knockout
T2 sequence (O60888 33-179): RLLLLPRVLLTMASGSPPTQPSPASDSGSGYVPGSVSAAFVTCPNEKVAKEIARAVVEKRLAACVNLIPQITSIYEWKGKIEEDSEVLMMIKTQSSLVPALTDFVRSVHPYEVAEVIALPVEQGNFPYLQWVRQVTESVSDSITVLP
Description: As an F-box protein, FBXO22 is a pivotal player in the context of tumor progression. FBXO22 has many oncogenic functions, including propelling the ubiquitination and subsequent degradation of a diverse spectrum of substrates, such as histone lysine demethylase 4 subfamily KDM4A/B, methylated p53, p21, PTEN, KLF4, and LKB1. […] To establish the role of endogenous FBXO22 in facilitating 22-SLF-induced FKBP12 degradation, FBXO22 knockout was used in a panel of cancer cell lines, including A549 (lung cancer), MDA-MB-231 (breast cancer), and PC3 (prostate cancer). The efficacy of FBXO22 knockout was verified through both genomic PCR and global proteomic analysis (FIG. 8b,c). […] Furthermore, mass spectrometry (MS)-based global proteomic analysis was conducted on A549 parental and FBXO22 knockout cells, following the treatment with 2 μM 22-SLF for 24 hours. […] To further substantiate the engagement of FBXO22 by the electrophilic portion of 22-SLF, a biotin-conjugated probe known as 22-biotin (FIG. 2f) was synthesized. This probe was then immobilized onto streptavidin-coated beads, which were subsequently subjected to interaction with lysates from HEK293T cells expressing HA-tagged FBXO22.

FKBP12 (mouse FBXO22) [1] = biological target: T3, FKBP12 (mouse FBXO22) (UniProt P62942+Q78JE5); experiment: FKBP12 degradation in HEK293T cells expressing mouse FBXO22; conditions: HEK293T cells expressing mouse FBXO22 wildtype
T3 construct: expressed in transfected cells; host or cells: HEK293T
Description: (§1) FIGS. 3A-3H show FBXO22 C227 and C228 are involved in 22-SLF-mediated degradation of FKBP12. […] Among 5,650 quantified IA-DTB-modified peptides, four cysteines were identified on FBXO22 (C83, C117, C228, and C365). […] Data are presented as the mean values (n=2 biological independent samples for DMSO treatment; n=3 biological independent samples for 22-SLF Treatment). […] The bag graph represents quantification of the FLAG-FKBP12/HSP90 protein content. Data are presented as mean values (n=2 biological independent samples). […] The bar graph represents quantification of the FLAG-FKBP12/HSP90 protein content. Data are presented as the mean values (n=2 biological independent samples).
(§2) Intriguingly, the peptide sequence containing the two consecutive cysteines (C227 and C228) is identical between human and mouse (FIG. 3f). To explore whether mouse FBXO22 can facilitate 22-SLF-induced FKBP12 degradation and if the conserved cysteines (C226 and C227 in mouse FBXO22) are pivotal, HEK293T cells expressing mouse FBXO22 wildtype, C226A, C227A, and C226AC227A, were generated.

FKBP12 (mouse FBXO22) [2] = biological target: T4, FKBP12 (mouse FBXO22) (UniProt P62942+Q78JE5, C226A/C227A); experiment: as above; conditions: HEK293T cells
T4 construct: expressed in transfected cells; host or cells: HEK293T
Description: as §1, §2

FKBP12 (mouse FBXO22) [3] = experiment: as above; conditions: HEK293T cells
Description: as §1, §2

FKBP12 = FKBP12 (Homo sapiens, UniProt P62942); experiment: MS-based global proteomic analysis in A549 parental and FBXO22 knockout cells (FKBP12); parameters: expressed in transfected cells; conditions: 2 μM, 24 hours
Protocol: The bar graph represents quantification of the FLAG-FKBP12/HSP90 protein content. Data are presented as the mean values±s.e.m. […] HEK293T cells expressing HA-FBXO22 were treated with 0.025-15 μM 22-SLF for 8 h. The graph represents quantification of the FLAG-FKBP12/HSP90 protein content. Data are presented as the mean values (n=2 biological independent samples). […] The bar graph represents quantification of the FLAG-FKBP12/HSP90 protein content. KO, knockout; WT, wild type. Data are presented as the mean values (n=2 biological independent samples). […] The bar graph represents quantification of the FLAG-FKBP12/HSP90 protein content. Data are presented as the mean values±s.e.m. […] The result is representative of two independent experiments with similar results. WCL, whole-cell lysate; IP, immunoprecipitate.
Data is obtained from Gene Expression Profiling Interactive Analysis (GEPIA). […] KDM4A and KDM4B are two reported substrates of FBXO22.
As an F-box protein, FBXO22 is a pivotal player in the context of tumor progression. FBXO22 has many oncogenic functions, including propelling the ubiquitination and subsequent degradation of a diverse spectrum of substrates, such as histone lysine demethylase 4 subfamily KDM4A/B, methylated p53, p21, PTEN, KLF4, and LKB1. […]

T4 sequence (P62942 2-108): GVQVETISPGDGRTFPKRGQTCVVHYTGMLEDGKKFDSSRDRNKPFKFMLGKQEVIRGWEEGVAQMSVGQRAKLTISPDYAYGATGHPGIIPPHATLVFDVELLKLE
T4 sequence (Q78JE5 whole entry C226A/C227A): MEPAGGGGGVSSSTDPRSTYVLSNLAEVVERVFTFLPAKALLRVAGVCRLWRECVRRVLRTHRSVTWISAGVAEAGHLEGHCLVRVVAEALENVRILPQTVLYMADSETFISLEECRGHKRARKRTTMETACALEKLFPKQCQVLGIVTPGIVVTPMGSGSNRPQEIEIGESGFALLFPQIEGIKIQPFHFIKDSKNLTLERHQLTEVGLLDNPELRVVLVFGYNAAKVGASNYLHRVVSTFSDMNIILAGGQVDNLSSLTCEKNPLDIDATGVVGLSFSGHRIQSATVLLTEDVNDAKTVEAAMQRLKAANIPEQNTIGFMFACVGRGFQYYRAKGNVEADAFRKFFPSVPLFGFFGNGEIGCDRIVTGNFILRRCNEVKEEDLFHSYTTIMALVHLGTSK
T3 sequence (P62942 2-108): as the sequence (P62942 2-108) above
T3 sequence (Q78JE5 whole entry): as the sequence (Q78JE5 whole entry C226A/C227A) above, with A226C, A227C counted along it
T3 sequence (P63208 whole entry partner): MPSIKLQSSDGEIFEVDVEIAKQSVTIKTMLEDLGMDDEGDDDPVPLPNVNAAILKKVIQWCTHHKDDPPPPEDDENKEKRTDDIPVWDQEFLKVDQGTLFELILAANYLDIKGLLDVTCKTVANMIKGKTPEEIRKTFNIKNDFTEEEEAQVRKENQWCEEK
Chain of FKBP12 (P62942 whole entry): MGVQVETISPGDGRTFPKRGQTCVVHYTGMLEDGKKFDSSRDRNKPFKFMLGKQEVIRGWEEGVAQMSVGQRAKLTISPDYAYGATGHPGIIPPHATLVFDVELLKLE
T1 sequence (P62942 whole entry): as above

CCC(C)(C)C(=O)C(=O)N1CCCC[C@H]1C(=O)O[C@H](CCc1ccc(OC)c(OC)c1)c1cccc(OCC(=O)NCCCOCCOCCOCCCN(C(=O)CCl)C(C(=O)NCc2ccccc2)c2nc3ccccc3s2)c1 (stereo partly drawn) [22-SLF]
Enrichment of sgRNAs in sorted low-GFP cells (FKBP12-EGFP): substantial enrichment of two distinct sgRNAs targeting the same E3 ligase, FBXO22
CUTA protein reduction in global proteomics (CUTA): observed to undergo reduction upon 22-SLF treatment in A549 parental cells, but not in the FBXO22 knockout setting
FKBP12 degradation, mouse FBXO22 wildtype (FKBP12 (mouse FBXO22) [1]): induced FBKP12 degradation
FKBP12 degradation, mouse FBXO22 double mutant C226AC227A (FKBP12 (mouse FBXO22) [2]): fully blocked the degradation
FKBP12 degradation, mouse FBXO22 single mutants C226A and C227A (FKBP12 (mouse FBXO22) [3]): partially impeded degradation
Selectivity of FKBP12 degradation in global proteomics (FKBP12): selective degradation of endogenous FKBP12 in FBXO22 wildtype, but not knockout context
